Experiments:
Assay in all cases: biochemical
Assay type in all cases: binding
[1] = molecular target: receptors (Bioprint panel) (Homo sapiens, UniProt Q99705); conditions: MELANIN-CONCENTRATING-HORMONE MCH1 (h) (agonist radioligand); 10 μM; read-out: % Inhibition of Control Specific Binding
[2] = molecular target: receptors (Bioprint panel) (Homo sapiens, UniProt Q13639); conditions: read-out: % Inhibition of Control Specific Binding
[3] = molecular target: receptors (Bioprint panel) (Homo sapiens, UniProt P30411); conditions: BRADYKININ B2 (h) (agonist radioligand); 10 μM; read-out: % Inhibition of Control Specific Binding
[4] = molecular target: receptors (Bioprint panel) (Homo sapiens, UniProt P41968); conditions: MELANOCORTIN MC3 (h) (agonist radioligand); 10 μM; read-out: % Inhibition of Control Specific Binding
[5] = molecular target: receptors (Bioprint panel) (Homo sapiens, UniProt P08173); conditions: […] M4 (h) (antagonist radioligand); 10 μM; read-out: % Inhibition of Control Specific Binding
[6] = molecular target: receptors (Bioprint panel) (Homo sapiens, UniProt P18089); conditions: […] alpha 2B (h) (antagonist radioligand); 10 μM; read-out: % Inhibition of Control Specific Binding
[7] = molecular target: receptors (Bioprint panel) (Homo sapiens, UniProt P08588); conditions: […] beta 1 (h) (agonist radioligand); 10 μM; read-out: % Inhibition of Control Specific Binding
[8] = molecular target: receptors (Bioprint panel) (Homo sapiens, UniProt P04150); conditions: read-out: % Inhibition of Control Specific Binding
receptors (Bioprint panel) (Homo sapiens, UniProt P04150), sequence (P04150 whole entry): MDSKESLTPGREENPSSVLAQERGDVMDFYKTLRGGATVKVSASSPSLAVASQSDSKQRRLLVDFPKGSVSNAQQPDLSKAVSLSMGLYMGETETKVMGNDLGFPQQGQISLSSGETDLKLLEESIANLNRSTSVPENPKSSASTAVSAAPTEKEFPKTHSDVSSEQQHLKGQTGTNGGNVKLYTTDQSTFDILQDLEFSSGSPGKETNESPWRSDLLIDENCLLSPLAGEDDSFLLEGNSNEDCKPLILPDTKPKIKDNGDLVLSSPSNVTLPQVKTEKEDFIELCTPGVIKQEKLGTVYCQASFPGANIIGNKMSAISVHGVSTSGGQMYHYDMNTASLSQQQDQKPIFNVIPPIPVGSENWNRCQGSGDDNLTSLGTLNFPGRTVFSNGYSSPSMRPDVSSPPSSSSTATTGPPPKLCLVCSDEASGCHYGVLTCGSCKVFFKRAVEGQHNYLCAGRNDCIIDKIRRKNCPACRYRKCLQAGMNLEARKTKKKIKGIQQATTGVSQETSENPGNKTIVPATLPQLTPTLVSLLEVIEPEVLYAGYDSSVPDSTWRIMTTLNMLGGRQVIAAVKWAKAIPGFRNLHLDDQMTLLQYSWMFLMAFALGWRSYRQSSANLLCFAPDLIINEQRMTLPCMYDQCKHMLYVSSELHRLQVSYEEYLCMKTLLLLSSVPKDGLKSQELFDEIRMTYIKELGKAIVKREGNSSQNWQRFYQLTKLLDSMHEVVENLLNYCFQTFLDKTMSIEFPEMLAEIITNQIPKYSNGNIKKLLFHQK

[9] = molecular target: receptors (Bioprint panel) (Homo sapiens, UniProt P35368); conditions: […] alpha 1B (h) (antagonist radioligand); 10 μM; read-out: % Inhibition of Control Specific Binding
receptors (Bioprint panel) (Homo sapiens, UniProt P35368), sequence (P35368 whole entry): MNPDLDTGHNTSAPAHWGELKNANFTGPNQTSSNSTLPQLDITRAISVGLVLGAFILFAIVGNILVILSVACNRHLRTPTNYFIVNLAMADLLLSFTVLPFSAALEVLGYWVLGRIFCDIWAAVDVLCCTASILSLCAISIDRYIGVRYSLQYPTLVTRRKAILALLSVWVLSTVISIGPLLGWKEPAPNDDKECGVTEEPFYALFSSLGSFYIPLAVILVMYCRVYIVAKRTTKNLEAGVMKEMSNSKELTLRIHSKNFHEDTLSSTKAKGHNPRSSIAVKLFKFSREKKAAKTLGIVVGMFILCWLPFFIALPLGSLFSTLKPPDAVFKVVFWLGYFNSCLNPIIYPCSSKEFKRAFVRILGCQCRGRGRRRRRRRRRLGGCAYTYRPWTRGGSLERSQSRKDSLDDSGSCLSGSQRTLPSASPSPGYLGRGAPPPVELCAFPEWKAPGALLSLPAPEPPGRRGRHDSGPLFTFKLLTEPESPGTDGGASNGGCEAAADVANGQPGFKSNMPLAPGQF

[10] = molecular target: receptors (Bioprint panel) (Homo sapiens, UniProt Q9UBS5); conditions: GABA GABAB(1b) (h) (antagonist radioligand); 10 μM; read-out: % Inhibition of Control Specific Binding
[11] = molecular target: receptors (Bioprint panel) (Homo sapiens, UniProt P03372); conditions: Estrogen ER alpha (h) (agonist radioligand); 10 μM; read-out: % Inhibition of Control Specific Binding
[12] = molecular target: receptors (Bioprint panel) (Homo sapiens, UniProt P28335); conditions: read-out: % Inhibition of Control Specific Binding
[13] = molecular target: receptors (Bioprint panel) (Rattus norvegicus, UniProt Q02294); conditions: Ca2+ channel (N) (antagonist radioligand); 10 μM; read-out: % Inhibition of Control Specific Binding
receptors (Bioprint panel) (Rattus norvegicus, UniProt Q02294), sequence (Q02294 whole entry): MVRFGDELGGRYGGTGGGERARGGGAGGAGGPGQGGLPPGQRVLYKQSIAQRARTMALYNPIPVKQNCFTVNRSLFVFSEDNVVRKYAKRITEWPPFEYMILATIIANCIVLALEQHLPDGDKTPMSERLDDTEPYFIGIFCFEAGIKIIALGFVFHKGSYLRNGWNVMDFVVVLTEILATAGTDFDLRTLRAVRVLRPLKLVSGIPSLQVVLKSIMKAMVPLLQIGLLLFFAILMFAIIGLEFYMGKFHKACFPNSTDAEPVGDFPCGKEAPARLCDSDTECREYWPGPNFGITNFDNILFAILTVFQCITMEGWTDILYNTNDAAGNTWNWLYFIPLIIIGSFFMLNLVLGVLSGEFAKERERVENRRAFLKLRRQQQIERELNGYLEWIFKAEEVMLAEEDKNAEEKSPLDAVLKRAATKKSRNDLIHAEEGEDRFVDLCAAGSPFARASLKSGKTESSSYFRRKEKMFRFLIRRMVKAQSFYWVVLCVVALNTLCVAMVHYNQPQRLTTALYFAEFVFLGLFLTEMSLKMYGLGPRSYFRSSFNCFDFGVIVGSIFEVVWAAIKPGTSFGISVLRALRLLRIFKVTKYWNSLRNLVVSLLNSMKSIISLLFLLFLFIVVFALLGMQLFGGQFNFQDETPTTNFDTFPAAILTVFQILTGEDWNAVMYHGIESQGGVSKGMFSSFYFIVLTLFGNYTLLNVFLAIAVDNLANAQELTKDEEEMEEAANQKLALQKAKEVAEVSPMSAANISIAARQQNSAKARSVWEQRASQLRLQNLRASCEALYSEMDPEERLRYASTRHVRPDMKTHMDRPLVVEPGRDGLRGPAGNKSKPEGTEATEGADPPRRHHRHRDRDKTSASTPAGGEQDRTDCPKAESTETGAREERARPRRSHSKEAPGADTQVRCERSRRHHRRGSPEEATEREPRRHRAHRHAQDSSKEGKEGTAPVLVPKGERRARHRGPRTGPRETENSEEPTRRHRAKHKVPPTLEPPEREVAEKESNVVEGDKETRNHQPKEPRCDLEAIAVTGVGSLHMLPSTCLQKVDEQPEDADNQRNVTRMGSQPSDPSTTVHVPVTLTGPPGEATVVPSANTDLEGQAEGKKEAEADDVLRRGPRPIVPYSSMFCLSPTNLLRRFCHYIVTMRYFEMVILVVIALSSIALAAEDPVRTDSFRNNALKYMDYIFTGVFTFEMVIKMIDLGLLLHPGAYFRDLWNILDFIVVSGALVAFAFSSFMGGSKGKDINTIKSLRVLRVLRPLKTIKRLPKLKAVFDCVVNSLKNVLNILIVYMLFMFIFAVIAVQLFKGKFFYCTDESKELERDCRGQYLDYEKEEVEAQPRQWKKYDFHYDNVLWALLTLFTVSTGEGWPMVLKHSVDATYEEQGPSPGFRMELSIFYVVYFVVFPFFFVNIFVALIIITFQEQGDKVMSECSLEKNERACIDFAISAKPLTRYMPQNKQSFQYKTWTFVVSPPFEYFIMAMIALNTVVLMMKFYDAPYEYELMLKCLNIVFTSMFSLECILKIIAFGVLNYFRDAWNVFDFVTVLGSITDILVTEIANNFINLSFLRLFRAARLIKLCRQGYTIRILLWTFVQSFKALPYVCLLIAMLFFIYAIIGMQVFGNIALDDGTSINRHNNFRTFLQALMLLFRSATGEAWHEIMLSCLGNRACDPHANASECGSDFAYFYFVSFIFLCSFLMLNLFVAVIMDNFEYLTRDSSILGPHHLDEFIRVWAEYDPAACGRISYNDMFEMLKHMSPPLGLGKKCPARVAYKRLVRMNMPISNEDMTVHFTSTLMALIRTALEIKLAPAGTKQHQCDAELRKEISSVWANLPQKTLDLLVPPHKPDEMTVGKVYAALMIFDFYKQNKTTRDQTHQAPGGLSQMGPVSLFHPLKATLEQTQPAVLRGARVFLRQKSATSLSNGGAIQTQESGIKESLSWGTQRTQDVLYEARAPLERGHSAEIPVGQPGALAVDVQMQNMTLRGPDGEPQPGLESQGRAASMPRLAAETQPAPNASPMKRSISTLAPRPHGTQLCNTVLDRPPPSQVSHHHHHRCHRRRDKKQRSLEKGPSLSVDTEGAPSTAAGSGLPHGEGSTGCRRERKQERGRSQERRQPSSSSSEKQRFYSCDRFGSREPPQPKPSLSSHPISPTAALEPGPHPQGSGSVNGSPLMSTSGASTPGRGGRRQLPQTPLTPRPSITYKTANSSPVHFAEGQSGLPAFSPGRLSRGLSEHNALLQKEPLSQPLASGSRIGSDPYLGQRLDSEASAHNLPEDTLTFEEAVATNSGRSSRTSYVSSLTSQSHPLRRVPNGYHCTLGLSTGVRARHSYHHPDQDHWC

[14] = molecular target: receptors (Bioprint panel) (Rattus norvegicus, UniProt P34975); conditions: OPIOD & OPIOID-LIKE kappa (KOP) (agonist radioligand); 10 μM; read-out: % Inhibition of Control Specific Binding
receptors (Bioprint panel) (Rattus norvegicus, UniProt P34975), sequence (P34975 whole entry): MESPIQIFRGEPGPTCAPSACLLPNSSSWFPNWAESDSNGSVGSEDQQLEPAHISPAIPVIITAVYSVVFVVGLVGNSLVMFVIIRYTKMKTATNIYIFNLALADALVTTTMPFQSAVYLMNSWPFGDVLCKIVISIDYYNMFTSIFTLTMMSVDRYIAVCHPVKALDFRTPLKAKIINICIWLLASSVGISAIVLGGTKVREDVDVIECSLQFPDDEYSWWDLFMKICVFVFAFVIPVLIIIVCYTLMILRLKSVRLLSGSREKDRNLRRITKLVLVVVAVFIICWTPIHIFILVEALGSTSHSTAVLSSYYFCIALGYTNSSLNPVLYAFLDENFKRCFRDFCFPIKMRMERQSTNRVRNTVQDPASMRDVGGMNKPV

[15] = molecular target: receptors (Bioprint panel) (Mus musculus, UniProt Q01727); conditions: MELANOCORTIN MC1 (agonist radioligand); 10 μM; read-out: % Inhibition of Control Specific Binding
[16] = molecular target: receptors (Bioprint panel) (Homo sapiens, UniProt P08172); conditions: […] M2 (h) (antagonist radioligand); 10 μM; read-out: % Inhibition of Control Specific Binding
receptors (Bioprint panel) (Homo sapiens, UniProt P08172), sequence (P08172 whole entry): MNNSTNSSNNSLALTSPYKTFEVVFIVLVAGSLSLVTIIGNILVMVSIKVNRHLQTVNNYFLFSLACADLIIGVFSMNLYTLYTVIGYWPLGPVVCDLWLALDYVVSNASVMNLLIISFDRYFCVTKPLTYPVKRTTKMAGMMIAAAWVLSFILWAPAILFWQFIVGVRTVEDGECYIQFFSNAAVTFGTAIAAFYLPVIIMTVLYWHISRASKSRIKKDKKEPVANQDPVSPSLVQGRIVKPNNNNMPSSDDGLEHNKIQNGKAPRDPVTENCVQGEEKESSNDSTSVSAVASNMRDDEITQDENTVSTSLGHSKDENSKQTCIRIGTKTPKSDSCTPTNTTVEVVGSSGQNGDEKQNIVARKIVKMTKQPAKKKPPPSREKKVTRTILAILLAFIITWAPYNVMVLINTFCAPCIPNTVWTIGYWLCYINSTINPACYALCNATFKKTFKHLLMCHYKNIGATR

[17] = molecular target: receptors (Bioprint panel) (Homo sapiens, UniProt P31645); conditions: 5-HT transporter (h) (antagonist radioligand); 10 μM; read-out: % Inhibition of Control Specific Binding
[18] = molecular target: receptors (Bioprint panel) (Homo sapiens, UniProt P25021); conditions: HISTAMINE H2 (h) (antagonist radioligand); 10 μM; read-out: % Inhibition of Control Specific Binding
[19] = molecular target: receptors (Bioprint panel) (Homo sapiens, UniProt P47871); conditions: glucagon (h) (agonist radioligand); 10 μM; read-out: % Inhibition of Control Specific Binding
[20] = molecular target: receptors (Bioprint panel) (Homo sapiens, UniProt P41595); conditions: read-out: % Inhibition of Control Specific Binding
[21] = molecular target: receptors (Bioprint panel) (Homo sapiens, UniProt P43681); conditions: NICOTINIC […] N neuronal alpha 4beta 2 (h) (agonist radioligand); 10 μM; read-out: % Inhibition of Control Specific Binding
[22] = molecular target: receptors (Bioprint panel) (Homo sapiens, UniProt P34969); conditions: read-out: % Inhibition of Control Specific Binding
[23] = molecular target: receptors (Bioprint panel) (Homo sapiens, UniProt Q9GZV3); conditions: choline transporter (CHT1) (h) (antagonist radioligand); 10 μM; read-out: % Inhibition of Control Specific Binding
[24] = molecular target: receptors (Bioprint panel) (Homo sapiens, UniProt P31391); conditions: SOMASTATIN sst4 (h) (agonist radioligand); 10 μM; read-out: % Inhibition of Control Specific Binding
[25] = molecular target: receptors (Bioprint panel) (Homo sapiens, UniProt P08913); conditions: […] alpha 2A (h) (antagonist radioligand); 10 μM; read-out: % Inhibition of Control Specific Binding
[26] = molecular target: receptors (Bioprint panel) (Homo sapiens, UniProt O43193); conditions: motilin(h) (agonist radioligand); 10 μM; read-out: % Inhibition of Control Specific Binding
[27] = molecular target: receptors (Bioprint panel) (Homo sapiens, UniProt P43088); conditions: […] (h) (agonist radioligand); 10 μM; read-out: % Inhibition of Control Specific Binding

receptors (Bioprint panel) (Homo sapiens, UniProt Q13639), sequence (Q13639 other isoform, or with tags, fused parts or gaps): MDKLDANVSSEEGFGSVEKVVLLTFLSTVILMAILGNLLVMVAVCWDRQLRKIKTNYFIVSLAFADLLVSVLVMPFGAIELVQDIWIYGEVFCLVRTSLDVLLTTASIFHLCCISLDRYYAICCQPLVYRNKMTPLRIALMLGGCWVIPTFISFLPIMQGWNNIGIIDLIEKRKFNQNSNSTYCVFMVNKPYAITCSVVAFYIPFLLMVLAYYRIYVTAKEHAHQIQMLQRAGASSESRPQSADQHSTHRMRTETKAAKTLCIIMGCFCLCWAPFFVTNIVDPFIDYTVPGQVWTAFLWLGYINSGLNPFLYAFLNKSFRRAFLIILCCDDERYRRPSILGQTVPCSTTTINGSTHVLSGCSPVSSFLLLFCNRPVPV

`CC(C)=CCC[C@H](CO)[C@@H]1CC[C@@H](C)c2c1cc(C)c(O)c2O` [Compound 1, 7,8,18-trihydroxyserrulat-14-ene] showed an inhibition at 10 µM [1] of -5%, an inhibition at 10 µM [2] of 2% and an inhibition at 10 µM [3] of -37%. The inhibition at 10 µM [4] was 60%, the inhibition at 10 µM [5] was 19% and the inhibition at 10 µM [6] was 7%. The inhibition at 10 µM [7] was 19%, the inhibition at 10 µM [8] was 47% and the inhibition at 10 µM [9] was 41%. For the same molecule, the inhibition at 10 µM [10] was -17%, the inhibition at 10 µM [11] was 40% and the inhibition at 10 µM [12] was 32%. It also gave an inhibition at 10 µM [13] of 5%, an inhibition at 10 µM [14] of 39% and an inhibition at 10 µM [15] of 11%. For the same molecule, the inhibition at 10 µM [16] was 1%, the inhibition at 10 µM [17] was 56% and the inhibition at 10 µM [18] was 37%. The inhibition at 10 µM [19] was -20%, the inhibition at 10 µM [20] was 70% and the inhibition at 10 µM [21] was -3%. It also gave an inhibition at 10 µM [22] of 14%, an inhibition at 10 µM [23] of -41% and an inhibition at 10 µM [24] of 40%. For the same molecule, the inhibition at 10 µM [25] was 35%, the inhibition at 10 µM [26] was -12% and the inhibition at 10 µM [27] was 54%.

From US11331299B2, “Medicinal use of serrulatane diterpenes” (The University of Sydney, priority 2016, dated 2022)
